Laboratory results reported in publication PMC9562916, “Investigation of the Phenolic Component Bioavailability Using the In Vitro Digestion/Caco-2 Cell Model, as well as the Antioxidant Activity in Chinese Red Wine” (Foods, 2022).
Marks after values point to notes of the source that are not given here.

Test system: not listed separately
Test: PC content of red wine before and after in vitro simulated gastrointestinal digestion (HPLC)
Assay type: in vitro ADME
Details: Cabernet red wine, after simulated gastrointestinal digestion
Description: The digestion procedure was carried out by adapting the method of Brodkorb et al. and Gómez et al.. […] One milliliter (50 units/mL) of porcine amylase was prepared in a 15 mM Na₃PO₄ buffer solution (pH adjusted to 6.8) containing 1.5 mM CaCl2, and it was added to the red wine solution. After 5 min, 4.5 mL of 0.12 M HCl was added to the mixture to adjust the pH to 2.4. One milliliter of porcine pepsin (0.02 mg/L) was dissolved in a 20 mM HCl solution. The mixture was then maintained at 37 °C for 120 min. The digestion mixture was then centrifuged at 8000× g for 15 min to obtain samples from the gastric digestion phase. […] The mixture was incubated at pH 6.5 at 37 °C for 3 h before being centrifuged. The extracts of the intestinal phase were the supernatants. The same operation was done three times, and each sample was stored in a refrigerator (−20 °C) immediately for further analysis.
The Pati method was adopted, with slight modifications, to measure the content of the PCs. The Agilent 1100 series HPLC instrument was used; it was equipped with a degasser, quaternary pump solvent delivery, a DAD system, and a single quadrupole mass detector coupled with an electrospray ionization LC–MS interface. Briefly, th samples were injected into a Zorbax SB C18 reversed-phase column (5 µm,150 × 2.1 mm, Agilent Technologies, Santa Clara, CA, USA) using an autosampler after filtering through 0.45 µm cellulose acetate syringe filters. The column temperature was kept at 30 °C, the injection volume was 10 µL, and the flow rate was 0.3 mL/min. The eluents were water and formic acid in a 99:1 (v/v) (A) ratio and 100% acetonitrile (B). […] The MS configuration was as follows: ESI, negative ion mode, nebulizer pressure of 30 psi, a dry gas flow rate of 10 mL/min, dry gas temperature of 350 °C, and a scan rate of 100~1200 m/z. PCs were determined according to their retention times, UV/VIS spectra, and high-resolution MS spectra, in addition to a comparison with the standards. […] Putative annotations were made using spectral features and literature information on the chromatographic properties and mass spectra records from the metabolome database. A standard curve was drawn using methanol solutions with different concentrations as the standards. The limits of detection and quantitation were calculated according to the signal-to-noise ratio (limit of detection: signal-to-noise ratio ≥ 3; limit of quantitation: signal-to-noise ratio ≥ 10). […] PCs All of the samples were determined in triplicate.

Structure (SMILES)	PC Contents, Cabernet, After Digestion
O=C(O)c1cc(O)c(O)c(O)c1 [Gallic acid]	9.08 ± 0.44 ^b mg/L
O=c1c(O[C@@H]2O[C@H](CO)[C@@H](O)[C@H](O)[C@H]2O)c(-c2ccc(O)c(O)c2)oc2cc(O)cc(O)c12 [Isoquercetin]	13.46 ± 0.59 ^b mg/L

Results, then the molecule that gave them:

PC Contents, Cabernet, After Digestion	Structure (SMILES)
28.22 ± 1.07 ^b mg/L	C[C@@H]1O[C@@H](O[C@H]2C(=O)c3c(O)cc(O)cc3O[C@@H]2c2ccc(O)c(O)c2)[C@H](O)[C@H](O)[C@H]1O [Astilbin]
3.01 ± 0.17 ^b mg/L	O=C(/C=C/c1ccc(O)c(O)c1)O[C@@H](C(=O)O)[C@@H](O)C(=O)O [Caftaric acid]
38.42 ± 1.88 ^b mg/L	CCOC(=O)c1cc(O)c(O)c(O)c1 [Ethyl gallate]

Same assay, conditions: Helanshan red wine, after simulated gastrointestinal digestion

Structure (SMILES)	PC Contents, Helanshan, After Digestion
C[C@@H]1O[C@@H](O[C@H]2C(=O)c3c(O)cc(O)cc3O[C@@H]2c2ccc(O)c(O)c2)[C@H](O)[C@H](O)[C@H]1O [Astilbin]	24.63 ± 1.13 ^b mg/L
CCOC(=O)c1cc(O)c(O)c(O)c1 [Ethyl gallate]	30.18 ± 0.94 ^b mg/L
O=c1c(O[C@@H]2O[C@H](CO)[C@@H](O)[C@H](O)[C@H]2O)c(-c2ccc(O)c(O)c2)oc2cc(O)cc(O)c12 [Isoquercetin]	12.01 ± 0.37 ^b mg/L

Same assay, conditions: Tianzhu red wine, after digestion vs undigested

Structure (SMILES)	Increase in content after digestion [%]
O=c1c(O[C@@H]2O[C@H](CO)[C@@H](O)[C@H](O)[C@H]2O)c(-c2ccc(O)c(O)c2)oc2cc(O)cc(O)c12 [Isoquercetin]	9.8

Same assay, conditions: Tianzhu red wine, after simulated gastrointestinal digestion

Structure (SMILES)	PC Contents, Tianzhu, After Digestion
O=C(O)c1cc(O)c(O)c(O)c1 [Gallic acid]	6.91 ± 0.26 ^b mg/L
O=c1c(O[C@@H]2O[C@H](CO)[C@@H](O)[C@H](O)[C@H]2O)c(-c2ccc(O)c(O)c2)oc2cc(O)cc(O)c12 [Isoquercetin]	19.13 ± 0.69 ^b mg/L

More lines, now with the values ahead:

PC Contents, Tianzhu, After Digestion	Structure (SMILES)
25.36 ± 1.32 ^b mg/L	C[C@@H]1O[C@@H](O[C@H]2C(=O)c3c(O)cc(O)cc3O[C@@H]2c2ccc(O)c(O)c2)[C@H](O)[C@H](O)[C@H]1O [Astilbin]
5.35 ± 0.23 ^b mg/L	O=C(/C=C/c1ccc(O)c(O)c1)O[C@@H](C(=O)O)[C@@H](O)C(=O)O [Caftaric acid]
40.83 ± 1.51 ^b mg/L	CCOC(=O)c1cc(O)c(O)c(O)c1 [Ethyl gallate]

Test system: Caco-2 cell monolayer
Test: Caco-2 transepithelial transport assay of digested red wine
Assay type: in vitro ADME, human
Details: Cabernet red wine, digested sample, basolateral side of Caco-2 monolayer
Description: (§1) Caco-2 cells were inoculated following the method of Hubatsch et al. […] Briefly, a 5% v/v of CO2 incubator at 37 °C was used to house the cells. […] Caco-2 cells were sub-cultured when they reached 80-90% of the adherent growth by treating them with a 0.05% v/v of trypsin-EDTA solution. The culture between passages 35 and 40 was used for the following experiment. Transport experiments were performed according to the method of Wu et al. with slight modifications. First, 1.0 × 10^5 Caco-2 cells were inoculated onto 12 mm transparent cell culture plates (Transwell). Media were carefully injected into the apical (0.5 mL) and basolateral (1.5 mL) sides of the Transwell plates. The cell culture medium had to be replaced every other day until the cells formed a monolayer. The integrity and transport ability of the Caco-2 cell monolayer were evaluated by measuring the trans-epithelial electrical resistance (TEER) with a MilliCell voltammeter (Millicell ERS-2, Merck Millipore, Billerica, MA, USA). […] When the cell activity exceeded 0.9, a transport experiment was conducted. The apical side was injected with a digested red wine sample (0.5 mL) and was thoroughly mixed with […] Balanced Salt Solution (HBSS) buffer solution. […] The cells were then cultured in a 37 °C, 5% CO2 incubator. Then, 0.25 mL samples were separately taken from the basolateral side of the monolayer. An equal volume of HBSS buffer was then added every half hour from the beginning of the culture until the end of the culture at 6 h. The collected samples were subsequently filtered and placed in the sample bottle for further HPLC analysis. This experiment was repeated several times to collect enough samples for the next antioxidant test. […] The Agilent 1100 series HPLC instrument was used; it was equipped with a degasser, quaternary pump solvent delivery, a DAD system, and a single quadrupole mass detector coupled with an electrospray ionization LC-MS interface. […] The column temperature was kept at 30 °C, the injection volume was 10 μL, and the flow rate was 0.3 mL/min. The eluents were water and formic acid in a 99:1 (v/v) (A) ratio and 100% acetonitrile (B). The gradient elution procedure was as follows: (1) 3% B solvent at 0 min, (2) 3 to 16% B solvent at 10 min, (3) 16 to 20% B solvent at 30 min, and (4) 20% B solvent maintained until the procedure was completed. The MS configuration was as follows: ESI, negative ion mode, nebulizer pressure of 30 psi, a dry gas flow rate of 10 mL/min, dry gas temperature of 350 °C, and a scan rate of 100~1200 m/z. PCs were determined according to their retention times, UV/VIS spectra, and high-resolution MS spectra, in addition to a comparison with the standards. […] If a standard was unavailable, a structurally related compound was used. Putative annotations were made using spectral features and literature information on the chromatographic properties and mass spectra records from the metabolome database. A standard curve was drawn using methanol solutions with different concentrations as the standards. […] PCs All of the samples were determined in triplicate.

Structure (SMILES)	PC Contents, Cabernet, Transmembrane
O=C(O)c1cc(O)c(O)c(O)c1 [Gallic acid]	4.61 ± 0.23 ^a mg/L
O=c1c(O[C@@H]2O[C@H](CO)[C@@H](O)[C@H](O)[C@H]2O)c(-c2ccc(O)c(O)c2)oc2cc(O)cc(O)c12 [Isoquercetin]	0.83 ± 0.04 ^a mg/L

The remaining lines, values ahead:

PC Contents, Cabernet, Transmembrane	Structure (SMILES)
1.11 ± 0.05 ^a mg/L	C[C@@H]1O[C@@H](O[C@H]2C(=O)c3c(O)cc(O)cc3O[C@@H]2c2ccc(O)c(O)c2)[C@H](O)[C@H](O)[C@H]1O [Astilbin]
0.43 ± 0.01 ^a mg/L	O=C(/C=C/c1ccc(O)c(O)c1)O[C@@H](C(=O)O)[C@@H](O)C(=O)O [Caftaric acid]
10.70 ± 0.33 ^a mg/L	CCOC(=O)c1cc(O)c(O)c(O)c1 [Ethyl gallate]

Same assay, conditions: Helanshan red wine, digested sample, basolateral side of Caco-2 monolayer

Structure (SMILES)	PC Contents, Helanshan, Transmembrane
O=C(O)c1cc(O)c(O)c(O)c1 [Gallic acid]	2.53 ± 0.14 ^a mg/L
O=c1c(O[C@@H]2O[C@H](CO)[C@@H](O)[C@H](O)[C@H]2O)c(-c2ccc(O)c(O)c2)oc2cc(O)cc(O)c12 [Isoquercetin]	0.72 ± 0.04 ^a mg/L

More lines, now with the values ahead:

PC Contents, Helanshan, Transmembrane	Structure (SMILES)
0.93 ± 0.04 ^a mg/L	C[C@@H]1O[C@@H](O[C@H]2C(=O)c3c(O)cc(O)cc3O[C@@H]2c2ccc(O)c(O)c2)[C@H](O)[C@H](O)[C@H]1O [Astilbin]
0.49 ± 0.02 ^a mg/L	O=C(/C=C/c1ccc(O)c(O)c1)O[C@@H](C(=O)O)[C@@H](O)C(=O)O [Caftaric acid]
8.64 ± 0.36 ^a mg/L	CCOC(=O)c1cc(O)c(O)c(O)c1 [Ethyl gallate]

Same assay, conditions: Tianzhu red wine, digested sample, basolateral side of Caco-2 monolayer

Structure (SMILES)	PC Contents, Tianzhu, Transmembrane
O=C(O)c1cc(O)c(O)c(O)c1 [Gallic acid]	1.38 ± 0.05 ^a mg/L
O=c1c(O[C@@H]2O[C@H](CO)[C@@H](O)[C@H](O)[C@H]2O)c(-c2ccc(O)c(O)c2)oc2cc(O)cc(O)c12 [Isoquercetin]	3.81 ± 0.18 ^a mg/L

Second part, the molecule after the results:

PC Contents, Tianzhu, Transmembrane	Structure (SMILES)
5.05 ± 0.19 ^a mg/L	C[C@@H]1O[C@@H](O[C@H]2C(=O)c3c(O)cc(O)cc3O[C@@H]2c2ccc(O)c(O)c2)[C@H](O)[C@H](O)[C@H]1O [Astilbin]
1.07 ± 0.03 ^a mg/L	O=C(/C=C/c1ccc(O)c(O)c1)O[C@@H](C(=O)O)[C@@H](O)C(=O)O [Caftaric acid]
8.13 ± 0.28 ^a mg/L	CCOC(=O)c1cc(O)c(O)c(O)c1 [Ethyl gallate]

Test system: not listed separately
Test: as above
Assay type: in vitro ADME, human
Details: human, Caco-2
Description: as §1

Structure (SMILES)	bioavailability [%]
O=C(O)c1cc(O)c(O)c(O)c1 [Gallic acid]	24

Same assay, conditions: human, Caco-2, Apparent Permeability Coefficients, Cabernet

Structure (SMILES)	Papp at 6 h [×10⁻⁶ cm/s]
O=C(O)c1cc(O)c(O)c(O)c1 [Gallic acid]	31.7 ± 3.82

Same assay, conditions: human, Caco-2, Apparent Permeability Coefficients, Helanshan

Structure (SMILES)	Papp at 6 h [×10⁻⁶ cm/s]
O=C(O)c1cc(O)c(O)c(O)c1 [Gallic acid]	30.9 ± 3.99

Same assay, conditions: human, Caco-2, Apparent Permeability Coefficients, Tianzhu

Structure (SMILES)	Papp at 6 h [×10⁻⁶ cm/s]
O=C(O)c1cc(O)c(O)c(O)c1 [Gallic acid]	32.8 ± 4.13

Same assay, conditions: human, Caco-2, apical to basolateral, digested Cabernet red wine; read-out: Apparent Permeability Coefficients, Cabernet

Structure (SMILES)	Papp at 6 h [×10⁻⁶ cm/s]
C[C@@H]1O[C@@H](O[C@H]2C(=O)c3c(O)cc(O)cc3O[C@@H]2c2ccc(O)c(O)c2)[C@H](O)[C@H](O)[C@H]1O [Astilbin]	2.46 ± 0.23
O=C(/C=C/c1ccc(O)c(O)c1)O[C@@H](C(=O)O)[C@@H](O)C(=O)O [Caftaric acid]	8.93 ± 1.02
CCOC(=O)c1cc(O)c(O)c(O)c1 [Ethyl gallate]	17.4 ± 2.73
O=c1c(O[C@@H]2O[C@H](CO)[C@@H](O)[C@H](O)[C@H]2O)c(-c2ccc(O)c(O)c2)oc2cc(O)cc(O)c12 [Isoquercetin]	3.84 ± 0.29

Same assay, conditions: human, Caco-2, apical to basolateral, digested Helanshan red wine; read-out: Apparent Permeability Coefficients, Helanshan

Structure (SMILES)	Papp at 6 h [×10⁻⁶ cm/s]
C[C@@H]1O[C@@H](O[C@H]2C(=O)c3c(O)cc(O)cc3O[C@@H]2c2ccc(O)c(O)c2)[C@H](O)[C@H](O)[C@H]1O [Astilbin]	2.37 ± 0.34
O=C(/C=C/c1ccc(O)c(O)c1)O[C@@H](C(=O)O)[C@@H](O)C(=O)O [Caftaric acid]	8.77 ± 1.28
CCOC(=O)c1cc(O)c(O)c(O)c1 [Ethyl gallate]	17.9 ± 2.88
O=c1c(O[C@@H]2O[C@H](CO)[C@@H](O)[C@H](O)[C@H]2O)c(-c2ccc(O)c(O)c2)oc2cc(O)cc(O)c12 [Isoquercetin]	3.73 ± 0.27

Same assay, conditions: human, Caco-2, apical to basolateral, digested Tianzhu red wine; read-out: Apparent Permeability Coefficients, Tianzhu

Structure (SMILES)	Papp at 6 h [×10⁻⁶ cm/s]
C[C@@H]1O[C@@H](O[C@H]2C(=O)c3c(O)cc(O)cc3O[C@@H]2c2ccc(O)c(O)c2)[C@H](O)[C@H](O)[C@H]1O [Astilbin]	2.41 ± 0.26
O=C(/C=C/c1ccc(O)c(O)c1)O[C@@H](C(=O)O)[C@@H](O)C(=O)O [Caftaric acid]	8.45 ± 1.31
CCOC(=O)c1cc(O)c(O)c(O)c1 [Ethyl gallate]	18.3 ± 3.02
O=c1c(O[C@@H]2O[C@H](CO)[C@@H](O)[C@H](O)[C@H]2O)c(-c2ccc(O)c(O)c2)oc2cc(O)cc(O)c12 [Isoquercetin]	3.87 ± 0.23
